Results published in US8168651B2, “Protein kinase modulators” (Cylene Pharmaceuticals, Inc., priority 2008, dated 2012).
Like-named read-outs stand apart in the source and are kept apart here. Each block holds one compound with its values, some of them ahead of it.

Columns and labels:
recombinant human PIM1 = recombinant human PIM1 (Homo sapiens (Human), UniProt P11309); assay: PIM-1 kinase activity in cell-free in vitro assay; format: biochemical; settings: for inhibition at 0.5 µM: 500 nM compound, read-out: PIM-1: % inh 500 nM
[1] = tested on: HCT-116 human colorectal carcinoma cells; assay: Cell-proliferation assay using Alamar Blue dye; format: cell-based; settings: Homo sapiens;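 further: cells exposed to compound for about 4 days, then Alamar Blue added and dye fluorescence read after about 4 h, compared with medium-only control wells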
[2] = HCT-116, HCT-116, second column, read-out: HCT-116 (uM), cell proliferation modulatory activity
[3] = HCT-116, HCT-116, first column, read-out: HCT-116 (uM), cell proliferation modulatory activity
[4] = HCT-116, read-out: HCT-116 (uM), cell proliferation modulatory activity, HCT-116, second HCT-116 column (c8)
[5] = HCT-116, read-out: HCT-116 (uM), cell proliferation modulatory activity, HCT-116, second column
[6] = HCT-116, read-out: HCT-116 (uM), cell proliferation modulatory activity, HCT-116, first column
[7] = HCT-116, HCT-116, second HCT-116 column (c8), read-out: HCT-116 (uM), cell proliferation modulatory activity

Chain of recombinant human PIM1 (P11309 whole entry): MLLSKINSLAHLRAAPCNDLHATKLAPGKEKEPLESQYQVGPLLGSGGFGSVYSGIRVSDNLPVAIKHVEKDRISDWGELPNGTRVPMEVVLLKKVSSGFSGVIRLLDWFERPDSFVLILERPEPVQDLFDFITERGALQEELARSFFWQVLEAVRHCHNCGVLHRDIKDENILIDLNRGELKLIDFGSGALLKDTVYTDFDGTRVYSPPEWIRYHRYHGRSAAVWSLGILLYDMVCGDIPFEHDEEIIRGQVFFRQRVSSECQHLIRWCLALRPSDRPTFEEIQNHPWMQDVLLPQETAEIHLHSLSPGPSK

inhibition at 0.5 µM (recombinant human PIM1; cell-free): 46.1%
IC50 [1, 2]: > 10 µM
SMILES: CCOc1ccc(Nc2nc3cc(-c4nnn[nH]4)ccc3c3sccc23)cc1

inhibition at 0.5 µM (recombinant human PIM1; cell-free): 16.8%
IC50 [1, 5]: > 10 µM
SMILES: CCOc1cccc(Nc2nc3cc(C(=O)O)ccc3c3sccc23)c1

inhibition at 0.5 µM (recombinant human PIM1; cell-free): -26.1%
IC50 [1, 3]: 10 µM
SMILES: O=C(O)CNc1nc2cc(C(=O)O)ccc2c2sccc12

inhibition at 0.5 µM (recombinant human PIM1; cell-free): 35%
IC50 [1, 5]: > 10 µM
SMILES: COc1cc(Nc2nc3cc(-c4nnn[nH]4)ccc3c3sccc23)ccc1F

inhibition at 0.5 µM (recombinant human PIM1; cell-free): -49.4%
IC50 [1, 6]: 10 µM
SMILES: O=C(O)c1ccc2c(c1)nc(NCCO)c1ccsc12

inhibition at 0.5 µM (recombinant human PIM1; cell-free): 35%
IC50 [1, 6]: 10 µM
SMILES: CN(C)CCNc1nc2cc(C(=O)O)ccc2c2ccccc12 [drawing 1391]

inhibition at 0.5 µM (recombinant human PIM1; cell-free): 55.5%
IC50 (recombinant human PIM1; cell-free): 0.809 µM
IC50 [1, 2]: > 10 µM
SMILES: COc1ccc(Nc2nc3cc(-c4nnn[nH]4)ccc3c3sccc23)cc1OC

inhibition at 0.5 µM (recombinant human PIM1; cell-free): 0.445%
IC50 [1, 6]: 10 µM
SMILES: COc1ccccc1Nc1nc2cc(C(=O)O)ccc2c2sccc12

inhibition at 0.5 µM (recombinant human PIM1; cell-free assay): -16%
IC50 [1, 7]: > 10 µM
SMILES: CN1CCN(c2nc3cc(C(=O)NCc4cccnc4)ccc3c3sccc23)CC1

inhibition at 0.5 µM (recombinant human PIM1; cell-free): 75.4%
IC50 (recombinant human PIM1; cell-free): 0.568 µM
IC50 [1, 5]: > 10 µM
SMILES: O=C(O)c1ccc2c(c1)nc(Nc1cccc(S(=O)(=O)NC3CC3)c1)c1ccsc12

inhibition at 0.5 µM (recombinant human PIM1; cell-free): 52.8%
IC50 (recombinant human PIM1; cell-free): 0.42 µM
IC50 [1, 5]: > 10 µM
SMILES: O=C(O)c1ccc2c(c1)nc(Nc1cc(Cl)ccc1F)c1ccsc12

inhibition at 0.5 µM (recombinant human PIM1; cell-free): -16%
IC50 [1, 3]: 10 µM
SMILES: O=C(O)c1ccc2c(c1)nc(N1CCCC1)c1ccsc12

inhibition at 0.5 µM (recombinant human PIM1; cell-free): 51.6%
IC50 (recombinant human PIM1; cell-free): 0.814 µM
IC50 [1, 5]: > 10 µM
SMILES: CCc1cccc(Nc2nc3cc(C(=O)O)ccc3c3sccc23)c1

inhibition at 0.5 µM (recombinant human PIM1; cell-free assay): -14.1%
IC50 [1, 7]: > 10 µM
SMILES: CN1CCN(c2nc3cc(C(=O)NCc4ccncc4)ccc3c3sccc23)CC1

inhibition at 0.5 µM (recombinant human PIM1; cell-free assay): 56%
IC50 (recombinant human PIM1; cell-free assay): > 1.1 µM
IC50 ([1]; HCT-116, second HCT-116 column (c8), read-out: HCT-116 (uM) cell proliferation modulatory activity): > 10 µM
SMILES: O=C(O)c1ccc2c(c1)nc(Nc1cc(-c3ccccc3)[nH]n1)c1ccncc12

inhibition at 0.5 µM (recombinant human PIM1; cell-free): 47.2%
IC50 [1, 5]: > 10 µM
SMILES: O=C(O)c1ccc2c(c1)nc(Nc1ccc3cc[nH]c3c1)c1ccsc12

Second part, the compound before the results:

SMILES: CN(C)CCNc1nc2cc(C#N)ccc2c2ccccc12
inhibition at 0.5 µM (recombinant human PIM1; cell-free): -63.6%
IC50 [1, 3]: 0.5 µM

SMILES: CCOc1ncc2c(n1)c(NC1CC1)nc1cc(C(=O)O)ccc12 [drawing 1615]
inhibition at 0.5 µM (recombinant human PIM1; cell-free assay): 11.1%
IC50 [1, 4]: > 10 µM

SMILES: N#Cc1ccc2c(c1)nc(Cl)c1ccsc12 [drawing 1398]
inhibition at 0.5 µM (recombinant human PIM1; cell-free): -20.2%
IC50 [1, 3]: 10 µM

SMILES: CN1CCN(c2nc3cc(C(=O)NCc4cncn4C)ccc3c3sccc23)CC1
inhibition at 0.5 µM (recombinant human PIM1; cell-free assay): -22.5%
IC50 [1, 7]: > 10 µM

SMILES: CN1CCN(c2nc3cc(C(=O)NC4CC4)ccc3c3sccc23)CC1
inhibition at 0.5 µM (recombinant human PIM1; cell-free assay): -12.7%
IC50 [1, 7]: > 10 µM

SMILES: Fc1cc(Cl)cc(Nc2nc3cc(-c4nnn[nH]4)ccc3c3sccc23)c1
inhibition at 0.5 µM (recombinant human PIM1; cell-free): 82%
IC50 (recombinant human PIM1; cell-free): 0.562 µM
IC50 [1, 5]: > 10 µM

SMILES: O=C(O)c1ccc2c(c1)nc(NC1CC1)c1ccncc12 [drawing 1639]
inhibition at 0.5 µM (recombinant human PIM1; cell-free assay): 28.1%
IC50 [1, 4]: > 10 µM

SMILES: CN1CCN(c2nc3cc(C(=O)NCc4nccn4C)ccc3c3sccc23)CC1
inhibition at 0.5 µM (recombinant human PIM1; cell-free assay): -14.5%
IC50 [1, 7]: > 10 µM

SMILES: c1ccc(Nc2nc3ccccc3c3ccccc23)cc1
inhibition at 0.5 µM (recombinant human PIM1; cell-free): -23.9%
IC50 [1, 3]: 10 µM

SMILES: c1ccc(COc2ccc(Nc3nc4cc(-c5nnn[nH]5)ccc4c4sccc34)cc2)cc1
inhibition at 0.5 µM (recombinant human PIM1; cell-free): 9.03%
IC50 [1, 2]: 15 µM

SMILES: CONC(=O)c1ccc2c(c1)nc(N1CCN(C)CC1)c1ccsc12
inhibition at 0.5 µM (recombinant human PIM1; cell-free assay): -0.965%
IC50 [1, 7]: > 10 µM

SMILES: N#Cc1ccc2c(c1)nc(NCCN1CCCC1)c1ccsc12
inhibition at 0.5 µM (recombinant human PIM1; cell-free assay): -22.4%
IC50 [1, 7]: 2.2 µM

SMILES: Fc1ccc(Nc2nc3cc(-c4nnn[nH]4)ccc3c3sccc23)cc1Cl
inhibition at 0.5 µM (recombinant human PIM1; cell-free): 67.4%
IC50 (recombinant human PIM1; cell-free): 0.702 µM
IC50 [1, 6]: 10 µM

SMILES: CN1CCCN(c2nc3cc(C#N)ccc3c3sccc23)CC1
inhibition at 0.5 µM (recombinant human PIM1; cell-free assay): -10%
IC50 [1, 7]: 2.63 µM

SMILES: Nc1ncc2c(n1)c(NC1CC1)nc1cc(C(=O)O)ccc12 [drawing 1644]
inhibition at 0.5 µM (recombinant human PIM1; cell-free assay): 60.1%
IC50 (recombinant human PIM1; cell-free assay): 0.432 µM
IC50 [1, 4]: > 10 µM

SMILES: Clc1nc2ccccc2c2sccc12
inhibition at 0.5 µM (recombinant human PIM1; cell-free): -22.1%
IC50 [1, 3]: 10 µM

SMILES: N#Cc1ccc2c(c1)nc(Nc1ccccc1)c1ccncc12
inhibition at 0.5 µM (recombinant human PIM1; cell-free): 2.12%
IC50 [1, 2]: 6.9 µM

SMILES: COC(=O)c1ccc2c(c1)[nH]c(=O)c1ccncc12 [drawing 1390]
inhibition at 0.5 µM (recombinant human PIM1; cell-free): 0.802%
IC50 [1, 6]: 10 µM

SMILES: N#Cc1ccc2c(c1)[nH]c(=O)c1ccncc12
inhibition at 0.5 µM (recombinant human PIM1; cell-free): -16%
IC50 [1, 2]: > 10 µM

SMILES: CN1CCN(c2nc3cc(C(=O)O)ccc3c3cnccc23)CC1
inhibition at 0.5 µM (recombinant human PIM1; cell-free assay): 40.1%
IC50 [1, 7]: > 10 µM
